# Test results published in patent publication US20080255186A1, “Pyrazolo[3,4-B]Pyridine Compound, and Its Use as a Pde4 Inhibitor” (priority 2005, published 2008).
# “And” between values parts separate entries of the source, which are not always exact repeats. Equal entries are not always repeated.
# Columns and labels:
# PDE3 (from bovine aorta) = assay: PDE3 inhibition (FP or SPA general type of assay); assay type: biochemical; conditions: in the particular assays used
# Description: PDE3 can be purified from bovine aorta as described by H. Coste and P. Grondin, “Characterisation of a novel potent and specific inhibitor of type V phosphodiesterase”, Biochem. Pharmacol., 1995, 50, 1577-1585.
# (§1) The ability of compounds to inhibit catalytic activity at PDE4B or 4D (human recombinant), PDE3 (from bovine aorta), PDE5 (human recombinant) or PDE6 (from bovine retina) can optionally be determined by Scintillation Proximity Assay (SPA) in a 96-well format.
# (§2) Test compounds (as a solution in DMSO, suitably about 2 microlitre (ul) volume of DMSO solution) are preincubated at ambient temperature (room temperature, e.g. 19-23° C.) in Wallac Isoplates (code 1450-514) with PDE enzyme in 50 mM Tris-HCl buffer pH 7.5, 8.3 mM MgCl2, 1.7 mM EGTA, 0.05% (w/v) bovine serum albumin for 10-30 minutes (usually 30 minutes). […] Bound radioactive product is measured using a WALLAC TRILUX 1450 Microbeta scintillation counter. […] Curves are analysed using ActivityBase and XLfit (ID Business Solutions Limited, 2 Ocean Court, Surrey Research Park, Guildford, Surrey GU2 7QB, United Kingdom). Results are expressed as pIC50 values.
# (§3) The compound of the invention (e.g. as prepared in Example 1) has also been tested for PDE3, PDE5 and PDE6 inhibition, e.g. using (independently for each PDE type) either a Fluorescence Polarisation (FP) general type of assay or using an SPA general type of assay.
# [1] = system: TNF-α (TNF-alpha) production in Human Whole Blood; assay: Inhibition of TNF-alpha production in Human Whole Blood (MSD assay); assay type: cell-based
# Procedure: This is an optional supplementary test, e.g. for potentially orally-administrable PDE4 inhibitors. Also, as the assay may measure the effect of PDE4 inhibitors after loss by protein binding, it might possibly also be relevant to externally-topically-administrable PDE4 inhibitors as protein-binding-loss of compound is possible during transport through the skin.
# Test compounds are prepared as a ca. 10 mM stock solution in DMSO and a dilution series prepared in DMSO with 8 successive 3-fold dilutions, either directly from the 10 mM stock solution or from a more dilute solution in DMSO. The compound is added to assay plates using a Biomek Fx liquid handling robot.
# Heparinised blood drawn from normal volunteers is dispensed (ca. 100 μl=ca. 100 ul) into microtitre plate wells containing ca. 0.5 or ca. 1.0 μl (ul, microlitres) of an appropriately diluted test compound solution. […] Plasma TNFα content is determined by electrochemiluminescence assay using the MSD technology (see below), the IGEN technology (see below) or by enzyme linked immunosorbant assay (ELISA) (see below). […]
# For the Whole Blood assay, plates are washed after 2 hours shaking with a Skanwasher 300 version B (Skatron Instruments AS. PO Box 8, N-3401 Lier, Norway). […] About 150 μl (ul) of Read Buffer T (2×) is added to the plates, which are then read on a MSD Sector 6000. […]
# PDE5 (human recombinant) = PDE5 (human recombinant) (Homo sapiens, UniProt O76074); assay: PDE5 inhibition (FP or SPA general type of assay); assay type: biochemical; conditions: in the particular assays used
# Description: Human recombinant PDE5 is disclosed in K. Loughney et al., “Isolation and characterisation of cDNAs encoding PDE5A, a human cGMP-binding, cGMP-specific 3′,5′-cyclic nucleotide phosphodiesterase”, Gene, 1998, 216, 139-147.
# as §1, §2, §3
structure (smiles),measurement,setting,value
"CCc1nc2c(cnn2CC)c(NC2CCOCC2)c1CNC(=O)c1cc(C)no1 [Example 1, N-{[1,6-diethyl-4-(tetrahydro-2H-pyran-4-ylamino)-1H-pyrazolo[3,4-b]pyridin-5-yl]methyl}-3-methyl-5-isoxazolecarboxamide]",PDE4B pIC50 compared with PDE3 pIC50 (selectivity),PDE3 (from bovine aorta),"inhibits PDE4B more strongly than it inhibits PDE3, PDE5 and PDE6"
same,IC50,"[1]; Homo sapiens, n = about 3 or 4, LPS-stimulated, read-out: Whole Blood, Mean pIC50 (MSD assay) (converted)",~0.398 nM
same,Whole Blood individual pIC50 test values (MSD assay),[1]; individual measurements,~9.19 and ~9.50 (2×) and > 9.82
same,PDE4B pIC50 compared with PDE5 pIC50 (selectivity),PDE5 (human recombinant),"inhibits PDE4B more strongly than it inhibits PDE3, PDE5 and PDE6"
